# Assay results reported in patent US9066516B2, “Uses of thaxtomin and thaxtomin compositions as herbicides” (priority 2008, dated 2015).
# Tests used:
# Type in all cases: in vivo
# [1] = tested on: corn (Zea mays var. Early Sunglow); test: Pot study, phytotoxicity on corn (Example 2); details: 0.5 and 1.0 mg/mL, 7, 14 and 21 days after treatment
# Method: A pot study is conducted to test the phytotoxicity of thaxtomin A on corn (Zea mays var. Early Sunglow) and wheat (Triticum aestivum var. PR1404). To confirm the activity on broadleaf weeds, pigweed (Amaranthus sp.) is planted in the same pot with either three corn or five wheat seeds, and sprayed simultaneously with the cereal test plants. The less than 3-inch tall plants grown under growth lights (12-h light/12-h dark) at 28° C. are sprayed with thaxtomin A solutions derived from a liquid culture of S. acidiscabies containing 0.5, and 1.0 mg thaxtomin A per mL of solvent (4% ethanol and 0.2% non-ionic surfactant). A solution of 4% ethanol +0.2% non-ionic surfactant without thaxtomin A is used as a control treatment. Each treatment is conducted in three replicates. Treated plants are kept at 28° C. under growth lights and observed at three time points—7, 14 and 21 days after treatment—for visual symptoms of phytotoxicity on corn and wheat and % control of pigweed.
# [2] = tested on: sorghum (Sorghum bicolor); test: Phytotoxicity on sorghum plants (Example 3); details: 0.5 and 1.0 mg thaxtomin A/mL, three weeks after the treatment
# Method: To test the phytotoxicity of thaxtomin A on sorghum plants, five seeds of sorghum (Sorghum bicolor) are planted in each 4″×4″ plastic pot filled with soil. Plants were grown under optimal conditions in a greenhouse before and after treatment with solutions containing 0.5 and 1.0 mg thaxtomin A/mL. At the time of the treatment, the plants are about 3 inches tall. Each treatment is applied in three replicates, and a control treatment included plants treated with just the carrier (4% EtOH, 0.02% polysorbate 60 POE (20) sorbitan monostearate). Evaluations for phytotoxicity are performed at 7-day intervals starting one week after treatment.
# [3] = tested on: Lambsquarter—Chenopodium album; test: Greenhouse weed control by S. acidiscabies extract (Example 4); details: Common lambsquarter; 0.5 mg/mL
# Method: A strain of S. acidiscabies (ATCC-49003) is grown in oat bran broth for 5 days (25° C., 200 rpm). The whole cell broth with thaxtomin A is extracted using XAD resin. The dried crude extract was resuspended in 4% ethanol and 0.02% non-ionic surfactant at a concentration of 10 mg/mL, and the solutions with two different concentrations of thaxtomin A (0.5 and 1.0 mg/mL) are tested the following broadleaf weed species:
# All plant species are tested in 4″×4″ plastic pots in three replicates. The untreated control plants are sprayed with the carrier solution (4% Ethanol, 0.02% glycosperse) and the positive control plants with Roundup at a rate corresponding to 1 fl. oz/acre. Treated plants are kept in a greenhouse under 12 h light/12 h dark conditions.
# [4] = tested on: dandelion; test: Greenhouse synergy test MBI-005 + turf herbicides (Example 11); details: 14 days
# Method: (§1) The common turf weeds dandelion and plantain were used in testing for synergy between MBI-005 and 2, 4- or dicamba, two common turf herbicides.
# (§2) There were 3 replicates per treatment which were sprayed with approximately ⅔ ml per replicate. The treatments were completely randomized and kept in a greenhouse at 25° C. The efficacy was rated at 7 and 14 days post treatment.
# [5] = tested on: plantain; test: as above; details: 14 days
# Method: as §1, §2
# [6] = tested on: Bittercress (Cardamine hirsuta); test: Pre-emergence test of MBI-005, field (Example 12); details: pre-emergent; note: ranges in brackets are in %
# Method: (§3) In field testing, field soil containing weed seeds were treated with 38.2 L MBI-005/ha at a spray volume of 280 L/ha using a CO2 sprayer with flat fan nozzles. Treatments, including water as the negative control and Gallery as the positive control, were replicated four times and applied twice at a four week interval. Treatments were evaluated visually as % cover and above-ground fresh weights per container were taken.
# [7] = tested on: Chickweed (Stellaria media); test: Pre-emergence test of MBI-005, field (Example 12); details: pre-emergent; note: ranges in brackets are in %
# Method: as §3
# [8] = tested on: Common groundsel (Senecio vulgaris); test: Pre-emergence test of MBI-005, field (Example 12); details: pre-emergent; note: ranges in brackets are in %
# Method: as §3
# [9] = tested on: Common yellow oxalis (Oxalis stricta); test: Pre-emergence test of MBI-005, field (Example 12); details: pre-emergent; note: ranges in brackets are in %
# Method: as §3
# [10] = tested on: Dandelion (Taraxacum oficinale); test: Pre-emergence test of MBI-005, field (Example 12); details: pre-emergent; note: ranges in brackets are in %
# Method: as §3
# [11] = tested on: Eclipta (Eclipta alba); test: Pre-emergence test of MBI-005, field (Example 12); details: pre-emergent; note: ranges in brackets are in %
# Method: as §3
# [12] = tested on: Flexuous bittercress (Cardamine flexuosa); test: Pre-emergence test of MBI-005, field (Example 12); details: pre-emergent; note: ranges in brackets are in %
# Method: as §3
# [13] = tested on: Hairy galinsoga (Galinsoga ciliata); test: Pre-emergence test of MBI-005, field (Example 12); details: pre-emergent; note: ranges in brackets are in %
# Method: as §3
# [14] = tested on: Henbit (Lamimum amplexicaule); test: Pre-emergence test of MBI-005, field (Example 12); details: pre-emergent; note: ranges in brackets are in %
# Method: as §3
# [15] = tested on: Marsh watercress (Rorippa islandica); test: Pre-emergence test of MBI-005, field (Example 12); details: pre-emergent; note: ranges in brackets are in %
# Method: as §3
# [16] = tested on: New Zealand moss (Sagina procumbens); test: Pre-emergence test of MBI-005, field (Example 12); details: pre-emergent; note: ranges in brackets are in %
# Method: as §3
# [17] = tested on: Shepherd's purse (Capsella bursa-pastora); test: Pre-emergence test of MBI-005, field (Example 12); details: pre-emergent; note: ranges in brackets are in %
# Method: as §3
# [18] = tested on: Velvetleaf (Abutilon theophrasti); test: Pre-emergence test of MBI-005, field (Example 12); details: pre-emergent; note: ranges in brackets are in %
# Method: as §3
# [19] = tested on: barnyard grass; test: Post-emergent MBI-005 + Propanil on barnyard grass (Example 20); details: 14 days
# Method: Negative controls were sprayed with water. Pots were randomly placed in a growth room at 25° C. and 50% RH, and watered as necessary. Treatments were replicated three times and evaluated at 7 and 14 days for visual % damage, with 0% indicating no damage and 100% indicating plant death.
# Synergy was calculated as the ratio of observed (E) to expected (E/Ee) percent control using Colby's formula.
# [20] = tested on: annual grasses and broadleaves, some perennials; test: Pre-emergence spectrum of MBI-005, overall (Example 12); details: some perennials (Table 12)
# Method: To further describe the spectrum of pre-emergence activity, tests were conducted in laboratory and field conditions. In laboratory testing, 35 seeds were placed on a ring of blotter paper inside a 3 cm petri dish and supplied with 4 ml of MBI-005 (≦0.1 mg MBI-005/ml). Water was used as a negative control and oryzalin applied as a positive control. Petri dishes were randomly placed in a growth room at 25° C. and 50% RH. Treatments were replicated three times and germinated seeds were counted 7 and 14 days after application; water was added as necessary to maintain moisture levels inside each petri dish.
# as §3
structure (smiles),measurement,setting,value
CN1C(=O)[C@](O)(Cc2cccc(O)c2)N(C)C(=O)[C@@H]1Cc1c[nH]c2cccc([N+](=O)[O-])c12 [thaxtomin A],symptoms of phytotoxicity,[1],no symptoms of phytotoxicity are observed
same,phytotoxicity,[2],no phytotoxicity is observed
same,stunting,[3],severe stunting
same,% Control MBI-005,"[4]; MBI-005 0.1 mg/mL (2, 4-D line)",20.0%
same,% Control MBI-005,[4]; MBI-005 0.1 mg/mL (dicamba line),20.0%
same,% Control MBI-005,[5]; MBI-005 0.12 mg/mL (dicamba line),10.0%
same,% Control MBI-005,"[5]; MBI-005 0.24 mg/mL (2, 4-D line)",25.0%
same,Rating at 0.1 mg/ml (Reduction of Germination),[6],+++ (85-94)
same,Rating at 0.1 mg/ml (Reduction of Germination),[7],++++ (95-100)
same,Rating at 0.1 mg/ml (Reduction of Germination),[8],++++ (95-100)
same,Rating at 0.1 mg/ml (Reduction of Germination),[9],++++ (95-100)
same,Rating at 0.1 mg/ml (Reduction of Germination),[10],++++ (95-100)
same,Rating at 0.1 mg/ml (Reduction of Germination),[11],++ (60-84)
same,Rating at 0.1 mg/ml (Reduction of Germination),[12],++ (60-84)
same,Rating at 0.1 mg/ml (Reduction of Germination),[13],+++ (85-94)
same,Rating at 0.1 mg/ml (Reduction of Germination),[14],+++ (85-94)
same,Rating at 0.1 mg/ml (Reduction of Germination),[15],++++ (95-100)
same,Rating at 0.1 mg/ml (Reduction of Germination),[16],++++ (95-100)
same,Rating at 0.1 mg/ml (Reduction of Germination),[17],++++ (95-100)
same,Rating at 0.1 mg/ml (Reduction of Germination),[18],++ (60-84)
same,Observed Average % Efficacy (E),[19]; 12.5% MBI-005 (of label rate),10.0%
same,Observed Average % Efficacy (E),[19]; 25% MBI-005 (of label rate),20.0%
same,pre-emergence spectrum of activity,[20],broad spectrum activity
